# Measured values as given in PMC10810011 (Expert opinion on drug delivery, 2023).
# Experiments:
# A1 adenosine = A1 adenosine (Homo sapiens, UniProt P30542); assay: InVEST radioligand filter binding, A1 adenosine; conditions: M13 20 μM, 100 = no effect
# 5-HT1A = 5-HT1A (Homo sapiens, UniProt P08908); assay: InVEST radioligand filter binding, 5-HT1A; conditions: M13 20 μM, 100 = no effect
# [1] = Chemical stability in acidic PBS; assay type: physicochemical; conditions: acidic PBS pH 5.0 or 3.0, 37 °C, 2 h, HPLC
# CD-1 mice = assay: Single-dose maximum tolerated dose; assay type: in vivo, mouse
# HCT-116 cells = assay: MTT cytotoxicity, 2D HCT-116; assay type: cell-based, human; conditions: 24 h
# 5-HT3 = molecular target: T1, 5-HT3 (Homo sapiens, UniProt P46098); assay: InVEST radioligand filter binding, ion channel 5-HT3; conditions: M13 20 μM, 100 = no effect
# T1 sequence (P46098 24-478): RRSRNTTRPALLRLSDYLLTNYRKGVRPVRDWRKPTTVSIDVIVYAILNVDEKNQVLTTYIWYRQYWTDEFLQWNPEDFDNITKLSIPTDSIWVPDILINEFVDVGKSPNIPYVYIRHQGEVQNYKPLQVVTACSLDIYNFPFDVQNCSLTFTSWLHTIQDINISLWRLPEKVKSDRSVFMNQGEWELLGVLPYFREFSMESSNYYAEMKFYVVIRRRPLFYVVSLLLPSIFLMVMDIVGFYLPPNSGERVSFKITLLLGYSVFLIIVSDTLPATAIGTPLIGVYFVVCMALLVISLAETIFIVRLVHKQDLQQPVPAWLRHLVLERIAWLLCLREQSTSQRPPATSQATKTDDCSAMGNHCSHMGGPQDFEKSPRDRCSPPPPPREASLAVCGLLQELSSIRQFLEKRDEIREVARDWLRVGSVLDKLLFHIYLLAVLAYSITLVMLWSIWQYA
# [2] = system: Salmonella typhimurium TA100; assay: Ames test, strain TA100; conditions: +S9 or -S9
# 5-HT2B = 5-HT2B (Homo sapiens, UniProt P41595); assay: InVEST radioligand filter binding, 5-HT2B; conditions: M13 20 μM, 100 = no effect
# Chain of 5-HT2B (P41595 whole entry): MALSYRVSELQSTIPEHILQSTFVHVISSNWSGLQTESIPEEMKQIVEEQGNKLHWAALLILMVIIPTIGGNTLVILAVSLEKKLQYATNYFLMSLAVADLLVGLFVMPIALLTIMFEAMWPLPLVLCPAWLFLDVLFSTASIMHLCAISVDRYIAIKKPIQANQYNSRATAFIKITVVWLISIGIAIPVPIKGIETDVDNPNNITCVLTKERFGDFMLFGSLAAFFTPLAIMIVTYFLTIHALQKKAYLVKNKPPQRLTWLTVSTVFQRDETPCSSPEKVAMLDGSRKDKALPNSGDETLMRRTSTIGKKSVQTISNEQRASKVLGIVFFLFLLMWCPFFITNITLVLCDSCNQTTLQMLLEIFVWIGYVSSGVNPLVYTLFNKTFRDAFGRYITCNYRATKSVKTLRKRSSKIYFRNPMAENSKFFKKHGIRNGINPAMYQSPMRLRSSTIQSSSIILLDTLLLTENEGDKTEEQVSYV
# PDE4A = PDE4A (Homo sapiens, UniProt P27815); assay: InVEST enzymatic activity, PDE4A; assay type: biochemical; conditions: M13 20 μM, 100 = no effect
# Chain of PDE4A (P27815 whole entry): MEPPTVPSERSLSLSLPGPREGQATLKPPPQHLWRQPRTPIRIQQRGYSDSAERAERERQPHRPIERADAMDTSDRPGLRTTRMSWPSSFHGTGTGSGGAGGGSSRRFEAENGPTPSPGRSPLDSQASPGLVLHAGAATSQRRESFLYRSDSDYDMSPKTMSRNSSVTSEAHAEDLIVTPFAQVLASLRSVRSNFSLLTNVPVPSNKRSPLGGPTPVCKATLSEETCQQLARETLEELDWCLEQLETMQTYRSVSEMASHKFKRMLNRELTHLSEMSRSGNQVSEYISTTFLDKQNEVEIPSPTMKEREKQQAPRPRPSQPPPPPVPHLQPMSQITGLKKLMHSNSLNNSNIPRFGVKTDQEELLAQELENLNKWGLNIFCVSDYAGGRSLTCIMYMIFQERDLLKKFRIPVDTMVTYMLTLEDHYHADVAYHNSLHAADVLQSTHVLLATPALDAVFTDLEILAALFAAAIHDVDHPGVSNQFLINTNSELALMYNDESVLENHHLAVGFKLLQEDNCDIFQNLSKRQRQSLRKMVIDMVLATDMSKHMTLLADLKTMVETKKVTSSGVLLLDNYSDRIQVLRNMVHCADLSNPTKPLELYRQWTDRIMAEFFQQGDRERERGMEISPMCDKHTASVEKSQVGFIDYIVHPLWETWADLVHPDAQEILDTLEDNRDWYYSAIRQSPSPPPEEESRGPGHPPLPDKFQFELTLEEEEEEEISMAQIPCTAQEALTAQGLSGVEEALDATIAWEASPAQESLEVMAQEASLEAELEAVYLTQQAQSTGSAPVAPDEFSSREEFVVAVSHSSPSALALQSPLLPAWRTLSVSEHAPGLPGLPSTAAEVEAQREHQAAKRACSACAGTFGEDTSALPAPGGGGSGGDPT
# Thrombin alpha = Thrombin alpha (Homo sapiens, UniProt P00734); assay: InVEST enzymatic activity, Thrombin alpha; assay type: biochemical; conditions: M13 20 μM, 100 = no effect
# Caco-2/BBe cells = assay: Cell cycle control phospho-antibody array; assay type: cell-based, human; conditions: 24 h, p < 0.01
# Opioid kappa = Opioid kappa (Homo sapiens, UniProt P41145); assay: InVEST radioligand filter binding, Opioid kappa; conditions: M13 20 μM, 100 = no effect
# Chain of Opioid kappa (P41145 whole entry): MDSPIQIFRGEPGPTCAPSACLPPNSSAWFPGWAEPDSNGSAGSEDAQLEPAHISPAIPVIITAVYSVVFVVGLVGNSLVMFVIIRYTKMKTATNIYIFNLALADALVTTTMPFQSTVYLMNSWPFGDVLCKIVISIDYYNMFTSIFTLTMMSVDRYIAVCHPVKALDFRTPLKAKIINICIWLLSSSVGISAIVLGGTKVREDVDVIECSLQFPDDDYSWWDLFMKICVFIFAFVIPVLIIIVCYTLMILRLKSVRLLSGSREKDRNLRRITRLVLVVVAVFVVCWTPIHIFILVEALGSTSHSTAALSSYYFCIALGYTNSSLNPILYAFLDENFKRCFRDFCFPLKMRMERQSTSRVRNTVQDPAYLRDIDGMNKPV
# D2S dopamine = D2S dopamine (Homo sapiens, UniProt P14416); assay: InVEST radioligand filter binding, D2S dopamine; conditions: M13 20 μM, 100 = no effect
# Chain of D2S dopamine (P14416 1-414 isoform P14416-2): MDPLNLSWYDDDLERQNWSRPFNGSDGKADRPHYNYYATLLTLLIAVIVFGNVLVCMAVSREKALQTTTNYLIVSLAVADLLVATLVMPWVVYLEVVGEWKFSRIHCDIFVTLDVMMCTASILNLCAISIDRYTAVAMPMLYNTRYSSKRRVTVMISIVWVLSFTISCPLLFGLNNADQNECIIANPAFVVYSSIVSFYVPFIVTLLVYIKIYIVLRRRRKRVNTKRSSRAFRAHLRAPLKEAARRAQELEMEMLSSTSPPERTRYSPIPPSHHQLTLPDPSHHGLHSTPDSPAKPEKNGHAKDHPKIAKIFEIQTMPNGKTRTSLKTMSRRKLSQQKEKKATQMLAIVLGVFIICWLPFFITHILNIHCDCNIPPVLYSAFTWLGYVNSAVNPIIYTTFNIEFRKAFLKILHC
# [3] = Metabolic stability with mouse intestinal microsomes; conditions: 30 min incubation, HPLC
# [4] = system: intestinal microbiota of AOM/DSS-induced CAC mice; assay: Intestinal microbiota analysis in AOM/DSS-induced CAC mice; assay type: in vivo, mouse; conditions: feces day 60
# CCK = molecular target: T2, CCK (Homo sapiens, UniProt P32238); assay: InVEST radioligand filter binding, CCK; conditions: CCK, M13 20 μM, 100 = no effect
# T2 sequence (P32238 1-428): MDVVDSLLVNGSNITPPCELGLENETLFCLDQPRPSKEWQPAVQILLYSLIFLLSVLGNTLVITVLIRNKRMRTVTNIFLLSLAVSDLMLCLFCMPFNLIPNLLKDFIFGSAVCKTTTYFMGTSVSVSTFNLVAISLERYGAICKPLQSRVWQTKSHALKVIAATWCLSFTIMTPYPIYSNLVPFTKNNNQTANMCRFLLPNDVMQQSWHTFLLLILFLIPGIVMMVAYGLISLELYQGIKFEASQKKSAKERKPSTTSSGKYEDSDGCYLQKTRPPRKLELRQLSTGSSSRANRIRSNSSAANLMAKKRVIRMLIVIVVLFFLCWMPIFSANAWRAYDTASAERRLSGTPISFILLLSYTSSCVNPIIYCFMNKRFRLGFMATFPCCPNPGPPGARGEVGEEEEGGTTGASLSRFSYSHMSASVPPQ
# Muscarinic M3 = Muscarinic M3 (Homo sapiens, UniProt P20309); assay: InVEST radioligand filter binding, Muscarinic M3; conditions: M13 20 μM, 100 = no effect
# Chain of Muscarinic M3 (P20309 whole entry): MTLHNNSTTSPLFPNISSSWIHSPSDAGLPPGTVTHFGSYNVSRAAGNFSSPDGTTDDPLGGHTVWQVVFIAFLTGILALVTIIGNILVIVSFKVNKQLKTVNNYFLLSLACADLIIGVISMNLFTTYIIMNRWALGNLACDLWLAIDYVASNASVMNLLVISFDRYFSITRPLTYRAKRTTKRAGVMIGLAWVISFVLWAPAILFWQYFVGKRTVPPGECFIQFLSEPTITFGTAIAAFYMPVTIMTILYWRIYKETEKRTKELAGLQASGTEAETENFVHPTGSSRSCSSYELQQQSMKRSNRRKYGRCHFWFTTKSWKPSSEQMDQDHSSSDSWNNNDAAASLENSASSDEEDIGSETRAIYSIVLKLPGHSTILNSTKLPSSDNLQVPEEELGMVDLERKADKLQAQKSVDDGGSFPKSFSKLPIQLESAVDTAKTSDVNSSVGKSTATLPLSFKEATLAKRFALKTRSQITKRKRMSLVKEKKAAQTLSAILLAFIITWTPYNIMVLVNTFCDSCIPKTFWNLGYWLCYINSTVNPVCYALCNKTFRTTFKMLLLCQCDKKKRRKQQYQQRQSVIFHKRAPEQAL
# alpha2A adrenergic = molecular target: T3, alpha2A adrenergic (Homo sapiens, UniProt P08913); assay: InVEST radioligand filter binding, alpha2A adrenergic; conditions: M13 20 μM, 100 = no effect
# T3 sequence (P08913 1-465): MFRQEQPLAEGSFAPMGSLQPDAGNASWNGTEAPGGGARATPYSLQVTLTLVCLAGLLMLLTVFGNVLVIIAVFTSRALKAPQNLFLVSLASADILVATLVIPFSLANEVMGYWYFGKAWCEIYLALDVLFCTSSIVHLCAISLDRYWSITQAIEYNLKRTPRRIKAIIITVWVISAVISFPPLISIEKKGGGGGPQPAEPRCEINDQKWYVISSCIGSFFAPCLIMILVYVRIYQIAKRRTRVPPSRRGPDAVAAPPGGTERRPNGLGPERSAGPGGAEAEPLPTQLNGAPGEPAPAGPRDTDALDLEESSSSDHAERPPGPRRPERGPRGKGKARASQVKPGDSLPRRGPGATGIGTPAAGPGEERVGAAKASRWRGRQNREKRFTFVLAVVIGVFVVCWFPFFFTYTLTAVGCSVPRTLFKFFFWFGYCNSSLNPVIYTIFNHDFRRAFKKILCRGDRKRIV
# [5] = system: HC-CSC (human colon cancer stem cells); assay: MTT cytotoxicity, 2D HC-CSC; assay type: cell-based; conditions: 24 h
# [6] = Kinetic solubility in pure water; assay type: physicochemical; conditions: room temperature, 24 h
# Opioid delta = Opioid delta (Homo sapiens, UniProt P41143); conditions: M13 20 μM, 100 = no effect
# Chain of Opioid delta (P41143 whole entry): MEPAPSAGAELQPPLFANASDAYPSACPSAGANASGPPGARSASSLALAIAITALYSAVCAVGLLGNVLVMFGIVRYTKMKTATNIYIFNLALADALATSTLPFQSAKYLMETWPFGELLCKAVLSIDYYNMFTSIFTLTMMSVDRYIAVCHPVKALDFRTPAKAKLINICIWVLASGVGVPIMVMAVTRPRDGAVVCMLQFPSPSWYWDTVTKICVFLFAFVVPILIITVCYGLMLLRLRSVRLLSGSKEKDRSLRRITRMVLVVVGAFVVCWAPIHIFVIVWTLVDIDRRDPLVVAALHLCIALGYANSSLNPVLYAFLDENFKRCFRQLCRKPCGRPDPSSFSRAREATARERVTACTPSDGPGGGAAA
# Chain of 5-HT1A (P08908 whole entry): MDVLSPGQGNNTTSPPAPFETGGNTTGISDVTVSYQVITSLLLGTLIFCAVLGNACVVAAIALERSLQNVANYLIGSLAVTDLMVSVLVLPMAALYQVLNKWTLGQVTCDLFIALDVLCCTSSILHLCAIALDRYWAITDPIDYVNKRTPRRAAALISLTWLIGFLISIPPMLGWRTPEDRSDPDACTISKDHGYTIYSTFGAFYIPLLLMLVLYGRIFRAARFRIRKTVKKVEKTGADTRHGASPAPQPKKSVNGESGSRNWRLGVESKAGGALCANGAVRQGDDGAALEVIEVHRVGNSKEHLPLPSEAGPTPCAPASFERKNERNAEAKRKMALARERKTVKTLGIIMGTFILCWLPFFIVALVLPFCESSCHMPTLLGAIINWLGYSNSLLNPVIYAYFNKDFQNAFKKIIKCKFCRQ
# Chain of A1 adenosine (P30542 whole entry): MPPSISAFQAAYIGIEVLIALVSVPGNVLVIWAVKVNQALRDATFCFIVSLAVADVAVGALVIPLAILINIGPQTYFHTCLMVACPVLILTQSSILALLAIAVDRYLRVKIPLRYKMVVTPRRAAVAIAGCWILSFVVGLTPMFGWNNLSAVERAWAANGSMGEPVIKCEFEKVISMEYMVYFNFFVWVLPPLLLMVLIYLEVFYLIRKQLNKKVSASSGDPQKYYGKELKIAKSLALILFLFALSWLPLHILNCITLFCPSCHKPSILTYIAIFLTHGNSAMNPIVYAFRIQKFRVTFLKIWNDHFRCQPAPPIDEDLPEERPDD
smiles,measurement,setting,value
"CCCCCC(CC(=O)CCc1ccc(O)c(OC)c1)SC[C@H](NC(=O)CC[C@H](N)C(=O)O)C(=O)NCC(=O)O (stereo partly shown) [M13, 5-glutathione-6-shogaol]",% Activity Data 1,A1 adenosine; repetition 1,85%
same,% Activity Data 2,A1 adenosine; repetition 2,87%
same,% Activity Data 1,5-HT1A; repetition 1,102%
same,% Activity Data 2,5-HT1A; repetition 2,100%
same,relative contents of M13 before and after incubation,[1],consistent
same,pathological sign in the anatomical organs,"CD-1 mice; single oral dose 1000 mg/kg, day 7",no pathological sign
same,"body weight change, spleen-to-body weight ratio, blood physiological and biochemical indexes","CD-1 mice; single oral dose 1000 mg/kg, day 7, vs PBS control",no significant difference
same,death during the experiment,"CD-1 mice; single oral dose 1000 mg/kg, female CD-1 mice, 7 days",did not observe any death
same,maximum tolerated dose,"CD-1 mice; single oral dose, mice",> 1000 mg/kg
same,IC50,"HCT-116 cells; HCT-116, MTT",40.1 µM
same,fold by which IC50 against HIEC-6 is higher than against HCT-116,HCT-116 cells; MTT,2.5 fold
same,% Activity Data 1,5-HT3; repetition 1,98%
same,% Activity Data 2,5-HT3; repetition 2,100%
same,number of revertant colonies,"[2]; TA100, 156 ~ 5000 μg/plate",did not increase
same,mutation factor,"[2]; TA100, all concentrations 156 ~ 5000 μg/plate",less than 1.6
same,% Activity Data 1,5-HT2B; repetition 1,109%
same,% Activity Data 2,5-HT2B; repetition 2,113%
same,% Activity Data 1,PDE4A; repetition 1,93%
same,% Activity Data 2,PDE4A; repetition 2,94%
same,% Activity Data 1,Thrombin alpha; repetition 1,96%
same,% Activity Data 2,Thrombin alpha; repetition 2,97%
same,CDC25A expression compared with the control and NL groups,Caco-2/BBe cells,down-regulated
same,phosphorylated CDC25A (p-CDC25A) compared with the control and NL groups,Caco-2/BBe cells,down-regulated
same,% Activity Data 1,Opioid kappa; repetition 1,95%
same,% Activity Data 2,Opioid kappa; repetition 2,93%
same,% Activity Data 1,D2S dopamine; repetition 1,106%
same,% Activity Data 2,D2S dopamine; repetition 2,89%
same,% of the input retained after incubation with mouse intestinal microsomes,[3],86%
same,unique species (Venn diagram vs WT and AOM/DSS groups),[4],three
same,% Activity Data 1,CCK; repetition 1,94%
same,% Activity Data 2,CCK; repetition 2,92%
same,% Activity Data 1,Muscarinic M3; repetition 1,100%
same,% Activity Data 2,Muscarinic M3; repetition 2,103%
same,% Activity Data 1,alpha2A adrenergic; repetition 1,92%
same,% Activity Data 2,alpha2A adrenergic; repetition 2,100%
same,fold by which IC50 against HIEC-6 is higher than against HC-CSC,[5],5.8 fold
same,IC50,[5]; HC-CSC,17.4 µM
same,kinetic solubility,[6],> 200 µM
same,% Activity Data 1,Opioid delta; repetition 1,98%
same,% Activity Data 2,Opioid delta; repetition 2,104%
